Experimental data published in US10421761B2, “Compounds for kinase modulation, and indications therefor” (Plexxikon Inc., priority 2013, dated 2019).
Entries after “also recorded” stand apart in the source; their conditions may differ. Like-named read-outs stand apart in the source and are kept apart here.

Columns and labels:
B9 (HRAS Q61L) cell line = test: B9 P-ERK cell activation assay (AlphaScreen); assay type: cell-based, mouse; details: for EC50: Mus musculus, P-ERK cell activation, B9, numeric bounds, read-out: Cell activity (EC50 μM) B9_pERK
Protocol: (§1) B9 is a squamous cell carcinoma cell line expressing activated HRAS that was isolated from a DMBA/TPA-induced mouse model of skin carcinogenesis (Stoler, et al. The Journal of Cell Biology, 1993, 122(5), 1103-17). IPC-298 is a human melanoma cell line that expresses activated NRAS (Aubert, et al. International Journal of Cancer, 1993, 54(5), 784-92). To determine whether compounds induce phosphorylated ERK and MEK, cells are plated in a 96-well dish and treated with an 8-point titration of compound for one hour at 37° C. The media is then removed and the cells are incubated with lysis buffer containing protease and phosphatase inhibitors. Phosphorylated ERK and MEK in the resulting lysates is detected using AlphaScreen™ technology. To detect phosphorylated ERK, cell lysates are incubated with streptavidin-coated donor beads, anti-mouse IgG acceptor beads, a biotinylated anti-ERK1/2 rabbit antibody, and a mouse antibody that recognizes ERK1/2 only when it is phosphorylated on Thr202 and Tyr204. The biotinylated ERK1/2 antibody will bind to both the streptavidin-coated donor beads and to ERK1/2 (regardless of its phosphorylation state), and the phospho-ERK1/2 antibody will bind to the acceptor beads and to ERK1/2 that is phosphorylated at Thr202/Tyr204. Excitation of the beads with laser light at 680 nm produces singlet oxygen, which is rapidly quenched unless the beads are in close proximity. When ERK is phosphorylated, both antibodies can bind the same protein, bringing the donor and acceptor beads into close proximity, producing a signal that can be measured at 580 nm. MEK phosphorylation is detected using a similar approach, only with antibodies directed against total MEK1/2 and MEK1/2 that is phosphorylated at Ser217 and Ser221.
(§2) Phospho-ERK AlphaScreen® assay. To determine the effects of compound treatment upon phosphorylation of ERK1/2, cells were plated in a 96-well dish and treated with an 8-point titration of compound for one hour at 37° C. before lysis. To detect pERK, cell lysates were incubated with streptavidin-coated AlphaScreen® donor beads, anti-mouse IgG AlphaScreen® acceptor beads, a biotinylated anti-ERK1/2 rabbit antibody, and a mouse antibody that recognizes ERK1/2 only when it is phosphorylated on Thr202 and Tyr204. The biotinylated ERK1/2 antibody binds to both the streptavidin-coated AlphaScreen® donor beads and to ERK1/2 (regardless of its phosphorylation state), and the phospho-ERK1/2 antibody binds to the acceptor beads and to ERK1/2 that is phosphorylated at Thr202/Tyr204. An increase in ERK1/2 phosphorylation at Thr202/Tyr204 brings the donor and acceptor AlphaScreen® beads into close proximity, generating a signal that can be quantified on an EnVision reader (Perkin Elmer).

BRAF V600E = molecular target: T1, BRAF V600E (Homo sapiens, UniProt P15056, V600E); test: BRAF V600E biochemical kinase activity assay (AlphaScreen, biotin-MEK1 substrate); details: BRAF V600E biochemical inhibitory activity
T1 construct: purchased Upstate Biotechnology
Protocol: Compounds to be tested are diluted in dimethyl sulfoxide to a concentration of 0.1 mM. These are serially diluted 15 μL into 30 μL of dimethyl sulfoxide seven times in 96 well plates for a total of 8 dilution points, and for each dilution point 1 μL is added to a well of an assay plate. […] The reaction is started with addition of 10 μL of 200 μM ATP (i.e. final 100 μM ATP). After incubation of the kinase reaction for 45 minutes at room temperature, 5 μL/well of Stop Solution is added (25 mM Hepes pH 7.5, 100 mM EDTA, 0.01% BSA with donor beads (Streptavidin coated beads, Perkin Elmer), acceptor beads (Protein A coated, Perkin Elmer), and anti-phosphor MEK1/2 antibody (CellSignal), each at final concentration 10 μg/mL). The plates are incubated for 3 hours at room temperature and read on Envision reader (Perkin Elmer). Phosphorylation of Mek1 results in binding of the anti-phosphor-MEK1/2antibody and association of the donor and acceptor beads such that signal correlates with kinase activity. The signal versus compound concentration is used to determine the IC50.
The in vitro RAF kinase activities were determined by measuring phosphorylation of a biotinylated substrate peptide as described previously (Tsai, J. et al. Proc Natl Acad Sci USA 105, 3041-3046 (2008)). Compounds of formula (I), e.g., compound A, was also tested against a panel of 287 kinases at concentrations of 1 μM in duplicate. Kinases inhibited by over 50% were followed up by IC50 determination. The 287 kinases represent all major branches of the kinome phylogenetic tree. The inhibition screen of 287 kinases was carried out under contract as complementary panels at Invitrogen (Life Technologies, Wis., USA) SelectScreen™ profiling service, DiscoverX (CA, USA) KINOMEScan™ service, and Reaction Biology Corporation (PA, USA) Kinase HotSpot℠ service.

[1] = test system: A375 (BRAF V600E) cell line; test: A375 P-ERK inhibition assay (AlphaScreen); assay type: cell-based, human; details: for IC50: Homo sapiens, A-375, A375_P-ERK
Protocol: as §2

[2] = test system: IPC-298 (NRAS Q61L) cell line; test: IPC-298 P-ERK cell activation assay (AlphaScreen); assay type: cell-based, human; details: for EC50: Homo sapiens, P-ERK cell activation, IPC-298, read-out: Cell activity (EC50 μM) IPC-298_P-ERK
Protocol: as §1, §2

T1 sequence (P15056 whole entry V600E): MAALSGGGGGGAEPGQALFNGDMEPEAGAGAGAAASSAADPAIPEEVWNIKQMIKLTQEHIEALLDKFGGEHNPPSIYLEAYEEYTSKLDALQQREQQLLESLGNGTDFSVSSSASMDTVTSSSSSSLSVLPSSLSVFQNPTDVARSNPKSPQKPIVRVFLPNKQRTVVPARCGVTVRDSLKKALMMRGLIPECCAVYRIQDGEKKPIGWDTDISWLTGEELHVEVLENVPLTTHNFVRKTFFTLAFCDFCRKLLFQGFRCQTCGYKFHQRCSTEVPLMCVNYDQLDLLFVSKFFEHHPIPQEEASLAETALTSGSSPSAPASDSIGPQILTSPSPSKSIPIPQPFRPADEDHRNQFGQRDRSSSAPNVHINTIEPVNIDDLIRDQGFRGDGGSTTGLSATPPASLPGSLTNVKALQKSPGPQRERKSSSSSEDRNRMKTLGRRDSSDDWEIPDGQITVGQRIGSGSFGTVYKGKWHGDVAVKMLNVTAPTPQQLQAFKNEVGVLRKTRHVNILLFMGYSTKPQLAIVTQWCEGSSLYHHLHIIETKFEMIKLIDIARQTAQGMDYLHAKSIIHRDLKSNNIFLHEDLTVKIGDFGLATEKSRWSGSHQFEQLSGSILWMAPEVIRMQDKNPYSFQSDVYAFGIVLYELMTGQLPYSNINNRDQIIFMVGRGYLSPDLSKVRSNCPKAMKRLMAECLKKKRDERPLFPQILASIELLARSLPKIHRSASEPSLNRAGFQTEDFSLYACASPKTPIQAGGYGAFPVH

EC50 (B9 (HRAS Q61L) cell line) [µM] | IC50 (BRAF V600E) [µM] | IC50 [1] [µM] | EC50 ([2]; class symbols) [µM] | EC50 ([2]; numeric bounds) [µM] | SMILES | pERK activation (B9 (HRAS Q61L) cell line; RAS mutant cell line B9, one hour treatment) | pERK activation ([2]; RAS mutant cell line IPC-298, one hour treatment) | pERK inhibition ([1]; BRAF V600E cell line A375)
– | 0.0001 to 1 | 0.0001 to 1 | – | – | CC(C)S(=O)(=O)Nc1ccc(F)c(C(=O)c2c[nH]c3ncnc(NCC4CC4)c23)c1F [P-2047, N-[3-[4-(cyclopropylmethylamino)-7H-pyrrolo[2,3-d]pyrimidine-5-carbonyl]-2,4-difluoro-phenyl]propane-2-sulfonamide] | – | – | –
> 10 | – | > 10 | – | > 10 | O=C(c1c(F)ccc(NS(=O)(=O)C2CCCC2)c1F)c1c[nH]c2ncncc12 [P-2028, N-[2,4-difluoro-3-(7H-pyrrolo[2,3-d]pyrimidine-5-carbonyl)phenyl]cyclopentanesulfonamide] | – | – | –
– | 0.0001 to 1 | 0.0001 to 1 | – | – | CC(C)S(=O)(=O)Nc1ccc(F)c(C(=O)c2c[nH]c3nccc(Cl)c23)c1F [P-2013, N-[3-(4-chloro-1H-pyrrolo[2,3-b]pyridine-3-carbonyl)-2,4-difluoro-phenyl]propane-2-sulfonamide] | – | – | –
– | 0.0001 to 1 | 0.0001 to 1 | – | – | CCCC(C)S(=O)(=O)Nc1ccc(F)c(C(=O)c2c[nH]c3ncnc(NCC4CC4)c23)c1F (stereo not drawn) [P-2051, N-[3-[4-(cyclopropylmethylamino)-7H-pyrrolo[2,3-d]pyrimidine-5-carbonyl]-2,4-difluoro-phenyl]pentane-2-sulfonamide] | – | – | –
> 10 | – | 0.0001 to 1 | – | > 10 | O=C(c1c(F)ccc(NS(=O)(=O)N2CCCC2)c1F)c1c[nH]c2ncncc12 [P-2029, N-[2,4-difluoro-3-(7H-pyrrolo[2,3-d]pyrimidine-5-carbonyl)phenyl]pyrrolidine-1-sulfonamide] | – | – | –
– | 0.0001 to 1 | 0.0001 to 1 | – | > 10 | CN(C)S(=O)(=O)Nc1ccc(F)c(C(=O)c2c[nH]c3ncnc(NCC4CC4)c23)c1F [P-2048, 4-(cyclopropylmethylamino)-5-[3-(dimethylsulfamoylamino)-2,6-difluoro-benzoyl]-7H-pyrrolo[2,3-d]pyrimidine] | – | – | –
> 10 | – | 0.0001 to 1 | – | > 10 | CC1(C)OCC(CNc2ncnc3[nH]cc(C(=O)c4cccc(NS(=O)(=O)N5CCCC5)c4F)c23)O1 (stereo not drawn) [P-2095, N-[3-[4-[(2,2-dimethyl-1,3-dioxolan-4-yl)methylamino]-7H-pyrrolo[2,3-d]pyrimidine-5-carbonyl]-2-fluoro-phenyl]pyrrolidine-1-sulfonamide] | – | – | –

Second part, the compound before the results:

SMILES | EC50 (B9 (HRAS Q61L) cell line) [µM] | IC50 (BRAF V600E) [µM] | IC50 [1] [µM] | EC50 ([2]; class symbols) [µM] | EC50 ([2]; numeric bounds) [µM] | pERK activation (B9 (HRAS Q61L) cell line; RAS mutant cell line B9, one hour treatment) | pERK activation ([2]; RAS mutant cell line IPC-298, one hour treatment) | pERK inhibition ([1]; BRAF V600E cell line A375)
COC(=O)N[C@@H](C)CNc1nccc(-c2sc(C(C)(C)C)nc2-c2cccc(NS(=O)(=O)N3CC[C@@H](F)C3)c2F)n1 [P-2138, methyl N-[(1S)-2-[[4-[2-tert-butyl-4-[2-fluoro-3-[[(3R)-3-fluoropyrrolidin-1-yl]sulfonylamino]phenyl]thiazol-5-yl]pyrimidin-2-yl]amino]-1-methyl-ethyl]carbamate] | > 10 | 0.0001 to 1 | 0.0001 to 1 | – | – | – | – | –
COC(=O)N[C@@H](C)CNc1nccc(-c2sc(-c3ccccc3)nc2-c2cccc(NS(=O)(=O)N3CC[C@@H](F)C3)c2F)n1 [P-2152, methyl N-[(1S)-2-[[4-[4-[2-fluoro-3-[[(3R)-3-fluoropyrrolidin-1-yl]sulfonylamino]phenyl]-2-phenyl-thiazol-5-yl]pyrimidin-2-yl]amino]-1-methyl-ethyl]carbamate] | – | 0.0001 to 1 | 0.0001 to 1 | 0.0001 to 1 | – | – | – | –
CN(C)S(=O)(=O)Nc1cc(Cl)cc(C(=O)c2c[nH]c3ncc(-c4cnc(C5CC5)nc4)cc23)c1F [P-2175, 3-[5-chloro-3-(dimethylsulfamoylamino)-2-fluoro-benzoyl]-5-(2-cyclopropylpyrimidin-5-yl)-1H-pyrrolo[2,3-b]pyridine] | – | 0.0001 to 1 | 0.0001 to 1 | – | > 10 | – | – | –
O=C(c1cccc(NS(=O)(=O)N2CCCC2)c1F)c1c[nH]c2ncnc(NCC(F)(F)F)c12 [P-2077, N-[2-fluoro-3-[4-(2,2,2-trifluoroethylamino)-7H-pyrrolo[2,3-d]pyrimidine-5-carbonyl]phenyl]pyrrolidine-1-sulfonamide] | – | 0.0001 to 1 | 0.0001 to 1 | – | > 10 | – | – | –
Cc1cc(NS(=O)(=O)N2CC[C@@H](F)C2)c(F)c(C(=O)c2c[nH]c3ncc(-c4cnc(C5CC5)nc4)cc23)c1 [P-2182, (3R)-N-[3-[5-(2-cyclopropylpyrimidin-5-yl)-1H-pyrrolo[2,3-b]pyridine-3-carbonyl]-2-fluoro-5-methyl-phenyl]-3-fluoro-pyrrolidine-1-sulfonamide] | > 10 | 0.0001 to 1 | – | – | > 10 | – | – | –
COC(=O)N[C@@H](C)CNc1nccc(-c2nn(C(C)C)cc2-c2cc(Cl)cc(NS(=O)(=O)N3CCCC3)c2F)n1 [P-2160, methyl N-[(1S)-2-[[4-[4-[5-chloro-2-fluoro-3-(pyrrolidin-1-ylsulfonylamino)phenyl]-1-isopropyl-pyrazol-3-yl]pyrimidin-2-yl]amino]-1-methyl-ethyl]carbamate] | – | 0.0001 to 1 | 0.0001 to 1 | 0.0001 to 1 | – | – | – | –
Cc1nc2c(-c3sc(C(C)(C)C)nc3-c3cccc(NS(=O)(=O)N4CCCC4)c3F)ccnc2[nH]1 [P-2126, N-[3-[2-tert-butyl-5-(2-methyl-3H-imidazo[4,5-b]pyridin-7-yl)thiazol-4-yl]-2-fluoro-phenyl]pyrrolidine-1-sulfonamide] | > 10 | 0.0001 to 1 | 0.0001 to 1 | – | – | – | – | –
CCN(C)S(=O)(=O)Nc1cc(Cl)cc(-c2cn(C(C)C)nc2-c2ccnc(NC[C@H](C)NC(=O)OC)n2)c1F [P-2164, methyl N-[(1S)-2-[[4-[4-[5-chloro-3-[[ethyl(methyl)sulfamoyl]amino]-2-fluoro-phenyl]-1-isopropyl-pyrazol-3-yl]pyrimidin-2-yl]amino]-1-methyl-ethyl]carbamate] | – | 0.0001 to 1 | 0.0001 to 1 | – | > 10 | – | – | –
CCN(C)S(=O)(=O)Nc1cccc(-c2nc(C(C)(C)C)sc2-c2ccnc(N)n2)c1F [P-0352, 5-(2-aminopyrimidin-4-yl)-2-tert-butyl-4-[3-[[ethyl(methyl)sulfamoyl]amino]-2-fluoro-phenyl]thiazole] | – | – | – | – | – | significantly reduced pERK activation; also recorded: markedly reduced pERK activation | significantly reduced pERK activation; also recorded: markedly reduced pERK activation | preserving the potent inhibitory activity; also recorded: moderate decrease in pERK IC50
O=C(c1cccc(NS(=O)(=O)N2CCCC2)c1F)c1c[nH]c2ncnc(NCCC(F)(F)F)c12 [P-2112, N-[2-fluoro-3-[4-(3,3,3-trifluoropropylamino)-7H-pyrrolo[2,3-d]pyrimidine-5-carbonyl]phenyl]pyrrolidine-1-sulfonamide] | – | 0.0001 to 1 | 0.0001 to 1 | – | > 10 | – | – | –
